Key:
[1] = Stability under temperature and humidity conditions; assay type: physicochemical; conditions: exposed to range of temperature and humidity conditions
[2] = Hygroscopicity of co-crystal versus free base; assay type: physicochemical
MM1.S cells = assay: Anti-proliferative assay (AlamarBlue) in MM1.S cells; assay type: cell-based; conditions: Homo sapiens, 72 h, 3 days of culture, read-out: MM1.S Antiproliferative GI50/μM
Procedure: Anti-proliferative assay The anti-proliferative effect of the compounds was assessed by AlamarBlue assay in MM1.S cells which were originally derived from a multiple myeloma patient. This assay is based on Resazurin, a non-fluorescent indicator dye converted to bright red-fluorescent resorufin via the reduction reactions of metabolically active cells. The amount of fluorescence produced is proportional to the number of living cells. MM.1S cells are cultured in RPMI-1640 medium (Gibco®) plus 10% Fetal bovine serum (FBS) and 1 mM L-glutamine. 12-24 hours before compound dosing, 90 μL of cell suspension (18,750 cells) was seeded into 96-well microtiter plates (black, flat bottom). On the day of compound dosing, compounds were serially diluted 1:3 in 100% DMSO using columns 2-10 of a 96-well microtiter plate. Column 11 of compound serial plate contained only DMSO. All wells were then further diluted 1:30 in media. 10 μL of compound or DMSO alone in media was added to cell plates columns 2-11 in triplicate. In addition, 1 plate had 10 μL of media added and was developed using alamar blue. Plates developed on the day of compound addition were referred to as Day 0. Dosed plates were cultured 3 days under normal conditions (RPMI-1640 plus 10% FBS and 1 mM L-glutamine) After 3 days of culture, dosed plates are developed using either MTS or alamar blue. For each compound concentration, % net growth was calculated by
(Day 3 dosed well-Average Day 0)/(Average Day 3 DMSO control-Average Day 0). The GI50, the concentration that causes 50% of growth inhibition, of each compound was calculated using the % net growth as defined by National Cancer Institute (NCI).

BRDT (1) = target: T1, BRDT (1) (Homo sapiens, UniProt Q58F21); assay: BROMOscan assay (DiscoverX) BRDT(1); assay type: binding
T1 construct: purchased Discoverx (BROMOscan service)
Procedure: (§1) BROMOscan™ Assay (ex Discoverx)
(§2) The ability of the compounds to bind to a bromodomain protein was tested by Discoverx using their proprietory ligand binding site-directed competition assay. Supplied compounds were anonymised.
(§3) The BROMOscan assay is based on the principle that test compounds that bind the bromodomain protein prevent its binding to an immobilized ligand thus reducing the amount of protein captured on a solid support. […] Screening “hits” are identified by measuring the amount of bromodomain captured in test versus control samples by using a quantitative, precise and ultra-sensitive qPCR method that detects the associated DNA label. In a similar manner, dissociation constants (Kds) for test compound-bromodomain interactions are calculated by measuring the amount of bromodomain protein captured on the solid support as a function of the test compound concentration.

BRD4 (1) [3] = target: T2, BRD4 (1) (Homo sapiens, UniProt O60885); assay: Alpha-Screen assay, BRD4 BD1; assay type: binding; design: 6His-TEV-BRD4, amino acid residues 42-169, corresponding to the BD1 domain; conditions: 6His-TEV-BRD4 residues 42-169 (BD1), H4K5,8,12,16(Ac)4-biotin peptide
Procedure: The ability of the compounds to bind to a bromodomain protein was tested in an AlphaScreen® assay. The assay is based on the interaction between Histidine-tagged bromodomain protein which can bind to Nickel-chelate donor beads, and a Biotinylated acetyl lysine peptide corresponding to a histone amino acid sequence, which can bind to streptavidin-conjugated acceptor beads. The protein-peptide interaction can be detected by light emission at 520-620 nm. In the presence of compounds which bind to BRD4 a lower signal is observed as the protein-peptide interaction is reduced. • 1. The assay was performed as follows: —Greiner BioOne (cat no. 784075) compound plates were used. Compounds were prepared using the Labcyte Echo Acoustic Dispenser with compounds in a final volume of 40 nl per well normalised to 0.5% (v/v) DMSO under final assay conditions. Compounds were tested in 12 point singlicate concentration response format. • 2. 4 μl of BRD4 protein (6His-TEV-BRD4, amino acid residues 42-169, corresponding to the BD1 domain) (final assay concentration=50 nM) per well was added using the Beckman Coulter BioRAPTR® Flying Reagent Dispensor Microfluidic Workstation. • 3. Incubated for 30 minutes at room temperature. • 4. Added 4 μl of acetyl lysine peptide (H4K5,8,12,16(Ac)4-biotin:(NH2-) YSGRG(K-Ac)GG(K-Ac)GLG(K-Ac)GGA(K-Ac)RHR(K-Biotin)(—COOH)) (final assay concentration=50 nM) per well using the Beckman Coulter BioRAPTR® Flying Reagent Dispensor Microfluidic Workstation. • 5. Incubated for 30 minutes at room temperature. • 6. Added 4 μl of Nickel & Streptavidin-bead solution pre-mixed (beads supplied by Perkin Elmer) per well using the BioRaptr as before (final assay concentration=4 μg/ml). Kept plates in the dark after addition. • 7. Incubated for 60 minutes at room temperature keeping the assay plate in the dark • 8. Plates were then read using the Perkin Elmer Envision plate reader, laser excitation at 680 nm and emission detected at 520-620 nm. • 9. Data was analysed using Genedata software and IC50 values calculated.

BRD3 (1) = target: T3, BRD3 (1) (Homo sapiens, UniProt Q15059); assay: BROMOscan assay (DiscoverX) BRD3(1); assay type: binding
T3 construct: purchased Discoverx (BROMOscan service)
T3 sequence (Q15059 34-140 limits assumed): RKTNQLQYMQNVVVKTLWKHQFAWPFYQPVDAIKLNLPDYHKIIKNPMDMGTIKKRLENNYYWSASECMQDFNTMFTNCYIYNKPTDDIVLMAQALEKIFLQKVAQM
Procedure: as §1, §2, §3

cMyc protein = assay: Assay monitoring cMyc protein modulation in MM1.S cells (flow cytometry); assay type: cell-based; conditions: Homo sapiens, c-Myc protein level, 16 hours treatment, read-out: MM1.S “MoA” IC50/μM
Procedure: Assay Monitoring cMyc Protein Modulation
Multiple myeloma MM1.S cells were cultured in RPMI-1640 medium containing 10% FBS and 1% L-glutamine under standardized conditions in a humidified incubator (37° C. and 5% CO2). The impact of cMyc protein modulation induced by bromodomain inhibitors was assessed by staining and quantifying c-Myc protein level after compound treatment using a flow cytometer Assay, carried out in 96-well plate format with 200K cells per well. Cells were treated with serially diluted compounds 16 hours before fixing with 2% paraformaldehyde (final concentration) for 10 minutes at 37° C. After being permeablized by ice cold 90% methanol at 4° C. for 30 min, cells were washed, blocked by buffer (0.5% FBS in phosphate-buffered saline (PBS) buffer) for 10 minutes at room temperature, and stained with cMyc antibody for 1 hour (Cell Signaling Technology®5605, 1:200 dilution). Cells were washed and stained by incubating with Alexa-488 conjugated anti-Rabbit IgG (Cell Signaling Technology®#4412, 1:1000 dilution) at RT for 30 minutes. After staining, cells were washed again and fixed with 2% paraformaldehyde in PBS and ready for analysis by BD FACSCalibur™ flow cytometer. Fluorescence geometric mean was calculated through FlowJo (TreeStar Inc), maximal inhibition signal was determined by control compound treatment at high dose across each plate, and minimal inhibition signal was determined by DMSO treatment. IC50 was calculated by fitting the dose-response data points which are normalized against max and min signals as percentage of inhibition using a standard 4-Parameter-Logistic nonlinear regression model.

BRD4 (1) [4] = target: T2, BRD4 (1); assay: BROMOscan assay (DiscoverX) BRD4(1); assay type: binding; design: purchased Discoverx (BROMOscan service)
Procedure: as §1, §2, §3

BRD4 (2) = target: T4, BRD4 (2) (Homo sapiens, UniProt O60885); assay: BROMOscan assay (DiscoverX) BRD4(2); assay type: binding
T4 construct: purchased Discoverx (BROMOscan service)
Procedure: as §1, §2, §3

BRDT (2) = target: T5, BRDT (2) (Homo sapiens, UniProt Q58F21); assay: BROMOscan assay (DiscoverX) BRDT(2); assay type: binding
T5 construct: purchased Discoverx (BROMOscan service)
Procedure: as §1, §2, §3

MV-4-11 cells = assay: MV-4-11 xenograft model; assay type: in vivo, mouse; conditions: CB17 SCID mice, 10 mg/kg PO qd for 21 days, FIG. 5
Procedure: Compound A was also investigated in a xenograft model as described below.
Female CB17 SCID mice aged 6 to 8 weeks were obtained from Charles River Laboratories (Wilmington, Mass.) and maintained under specific-pathogen-free conditions in an AAALAC (Association for Assessment and Accreditation of Laboratory Animal Care)—accredited facility. Irradiated food and autoclaved water were provided ad libitum.
MV-4-11 cells ([…]) were resuspended in 0.1 ml of medium without serum and Matrigel (Becton Dickinson) at a 1:1 ratio. Cells (10^7/mouse) were injected subcutaneouly into the right flank of mice. Tumors were allowed to grow until they reached an average volume of 200 mm^3 for efficacy and then the mice were randomized into groups of 8. Compound A was solubilized in 0.5% HPMC/0.1% Tween80 for dosing. For efficacy, either vehicle or Compound A was administered PO once a day (qd) for 21 days at 10 mg/kg (mpk). Body weight and tumour volume were measured twice a week for 21 days.

BRD3 (2) = target: T6, BRD3 (2) (Homo sapiens, UniProt Q15059); assay: BROMOscan assay (DiscoverX) BRD3(2); assay type: binding
T6 construct: purchased Discoverx (BROMOscan service)
T6 sequence (Q15059 306-415 limits assumed): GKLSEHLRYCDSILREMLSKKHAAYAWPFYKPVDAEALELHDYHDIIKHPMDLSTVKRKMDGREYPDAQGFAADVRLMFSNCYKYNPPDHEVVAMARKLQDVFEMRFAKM
Procedure: as §1, §2, §3

BRD2 (1) = target: T7, BRD2 (1) (Homo sapiens, UniProt P25440); assay: BROMOscan assay (DiscoverX) BRD2(1); assay type: binding
T7 construct: purchased Discoverx (BROMOscan service)
T7 sequence (P25440 74-180 limits assumed): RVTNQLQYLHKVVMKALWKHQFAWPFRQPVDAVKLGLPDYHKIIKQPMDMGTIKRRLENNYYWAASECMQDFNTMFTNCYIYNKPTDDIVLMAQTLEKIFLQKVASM
Procedure: as §1, §2, §3

BRD2 (2) = target: T8, BRD2 (2) (Homo sapiens, UniProt P25440); assay: BROMOscan assay (DiscoverX) BRD2(2); assay type: binding
T8 construct: purchased Discoverx (BROMOscan service)
T8 sequence (P25440 344-453 limits assumed): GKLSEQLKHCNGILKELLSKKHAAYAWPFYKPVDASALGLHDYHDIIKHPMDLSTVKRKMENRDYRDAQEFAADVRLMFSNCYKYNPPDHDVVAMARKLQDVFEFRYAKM
Procedure: as §1, §2, §3

Row | pKa (pKa determination) | Stability compared to Compound A free base [1] | GI50 (MM1.S cells) | Kd (BRDT (1)) | IC50 (BRD4 (1) [3]) | Kd (BRD3 (1)) | IC50 (cMyc protein) | Kd (BRD4 (1) [4]) | Kd (BRD4 (2)) | pKa (physchem) | Kd (BRDT (2)) | Kd (BRD3 (2)) | Kd (BRD2 (1)) | Kd (BRD2 (2)) | SMILES | Hygroscopicity compared to Compound A free base [2] | Tumour growth inhibition (tumour volume) (MV-4-11 cells)
1 |  |  | < 0.002 µM | 0.035 µM | 0.035 µM | 0.057 µM | < 0.002 µM | 0.026 µM | 0.29 µM |  | 1.1 µM | 0.92 µM | 0.083 µM | 0.35 µM | COc1nnc2ccc(N3CCC(c4ccc(OCCN5[C@H](C)CN(C(C)=O)C[C@@H]5C)cc4)CC3)nn12 [Example 2, 1-((3S,5R)-4-(2-(4-(1-(3-methoxy-[1,2,4]triazolo[4,3-b]pyridazin-6-yl)piperidin-4-yl)phenoxy)ethyl)-3,5-dimethylpiperazin-1-yl)ethanone] |  | 
2 |  |  | 0.0075 µM | 0.093 µM | 0.3 µM | 0.11 µM | 0.025 µM | 0.11 µM | 0.34 µM |  | 0.99 µM | 0.67 µM | 0.16 µM | 0.53 µM | COc1nnc2ccc(N3CCC(c4ccc(OCCCN5CCN(C)C(=O)[C@H]5C)cc4)CC3)nn12 [Example 3, (R)-4-(3-(4-(1-(3-methoxy-[1,2,4]triazolo[4,3-b]pyridazin-6-yl)piperidin-4-yl)phenoxy)propyl)-1,3-dimethylpiperazin-2-one] |  | 
3 |  |  | 0.0051 µM |  | 0.14 µM |  | 0.012 µM | 0.057 µM | 0.25 µM |  |  |  |  |  | COc1nnc2ccc(N3CCC(c4ccc(OCCCN5[C@H](C)CN(C(C)=O)C[C@@H]5C)cc4)CC3)nn12 [Example 4, 1-((3R,5S)-4-(3-(4-(1-(3-methoxy-[1,2,4]triazolo[4,3-b]pyridazin-6-yl)piperidin-4-yl)phenoxy)propyl)-3,5-dimethylpiperazin-1-yl)ethanone] |  | 

More lines, now with the values behind:

Row | SMILES | pKa (pKa determination) | Stability compared to Compound A free base [1] | GI50 (MM1.S cells) | Kd (BRDT (1)) | IC50 (BRD4 (1) [3]) | Kd (BRD3 (1)) | IC50 (cMyc protein) | Kd (BRD4 (1) [4]) | Kd (BRD4 (2)) | pKa (physchem) | Kd (BRDT (2)) | Kd (BRD3 (2)) | Kd (BRD2 (1)) | Kd (BRD2 (2)) | Hygroscopicity compared to Compound A free base [2] | Tumour growth inhibition (tumour volume) (MV-4-11 cells)
4 | O=C(O)c1ccc2cc(O)ccc2c1 [6-hydroxy-2-naphthoic acid] | 4.3 |  |  |  |  |  |  |  |  |  |  |  |  |  |  | 
5 | COc1nnc2ccc(N3CCC(c4ccc(OCCN5CCN(C)C(=O)[C@H]5C)cc4)CC3)nn12.O=C(O)c1ccc2cc(O)ccc2c1 [(R)-4-(2-(4-(1-(3-methoxy-[1,2,4]triazolo[4,3-b]pyridazin-6-yl)piperidin-4-yl)phenoxy)ethyl)-1,3-dimethylpiperazin-2-one:6-hydroxy-2-naphthoic acid (1:1) co-crystal] |  | more stable than Compound A free base |  |  |  |  |  |  |  |  |  |  |  |  | significantly less hydroscopic than Compound A free base | 
6 | COc1nnc2ccc(N3CCC(c4ccc(OCCN5CCN(C)C(=O)[C@H]5C)cc4)CC3)nn12 [Example 1, (R)-4-(2-(4-(1-(3-methoxy-[1,2,4]triazolo[4,3-b]pyridazin-6-yl)piperidin-4-yl)phenoxy)ethyl)-1,3-dimethylpiperazin-2-one] |  |  | 0.0049 µM | 0.095 µM | 0.12 µM | 0.064 µM | 0.011 µM | 0.047 µM | 0.13 µM | < 1 | 0.45 µM | 0.43 µM | 0.1 µM | 0.28 µM |  | Tumour Growth Inhibition
